Experimental data taken from patent publication US6939890B2, “sPLA2 inhibitors” (Eli Lilly and Company, priority 1999, dated 2005).
Counter-ions that a name gives are not always drawn.

Target: T1, recombinant human secreted phospholipase A2 (Homo sapiens, UniProt P14555)
T1 sequence (P14555 21-144): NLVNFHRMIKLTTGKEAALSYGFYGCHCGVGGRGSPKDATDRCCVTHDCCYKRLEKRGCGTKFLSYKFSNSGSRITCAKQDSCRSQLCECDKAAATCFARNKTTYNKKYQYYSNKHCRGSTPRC
Assay: chromogenic assay for inhibitors of recombinant human secreted phospholipase A2 (diheptanoyl thio-PC/DTNB, 96 well microtiter plates)
Assay type: biochemical
Conditions: included in the table for purposes of comparison only
Text: The following chromogenic assay procedure was used to identify and evaluate inhibitors of recombinant human secreted phospholipase A2. The assay described herein has been adapted for high volume screening using 96 well microtiter plates. A general description of this assay method is found in the article, “Analysis of Human Synovial Fluid Phospholipase A2 on Short Chain Phosphatidylcholine-Mixed Micelles: Development of a Spectrophotometric Assay Suitable for a Microtiterplate Reader”, by Laure J. Reynolds, Lori L. Hughes, and Edward A Dennis, Analytical Biochemistry, 204, pp. 190-197, 1992 (the disclosure of which is incorporated herein by reference): […]
A measured volume of racemic dipheptanoyl thio PC supplied in chloroform at a concentration of 100 mg/ml is taken to dryness and redissolved in 10 millimolar […]
• 1. […] Read absorbance of wells at 405 nanometers with an automatic plate reader.
All compounds were tested in triplicate. […] Compounds initially found to be active were reassayed to confirm their activity and, if sufficiently active, IC50 values were determined. […] In all cases, % inhibition measured at 405 nanometers generated by enzyme reactions containing inhibitors relative to the uninhibited control reactions was determined. […] IC50 were determined by plotting log concentration versus inhibition values in the range from 10-90% inhibition.

Compound	inhibiting sPLA2 (statement in words)
CCc1c(C(=O)C(N)=O)c2c(OCC(=O)OC)cccc2n1Cc1ccccc1 [1 (SM), [[3-(2-Amino-1,2-dioxoethyl)-2-ethyl-1-(phenylmethyl)-1H-indol-4-yl]oxy]acetic acid methyl ester]	highly active

Tested on: not given
Assay: not given
Conditions: not given

Compound	melting point
CCc1c(C(=O)C(N)=O)c2c(OCC(=O)N(C)OCc3ccccc3)cccc2n1Cc1ccccc1 [Compound 2Ak, 2-[[3-(Aminooxoacetyl)-2-ethyl-1-(phenylmethyl)-1H-indol-4-yl]oxy]-N-(methyl)-N-(phenylmethyloxy)acetamide]	186.5 to 188.5 °C
CCc1c(CC(N)=O)c2c(OCC(=O)NO)cccc2n1Cc1ccccc1 [Compound 2Ba, 2-[[3-(2-Amino-2-oxoethyl)-2-ethyl-1-(phenylnmethyl)-1H-indol-4-yl]oxy]-N-(hydroxy)acetamide]	187 to 189 °C
CCc1c(C(=O)C(N)=O)c2c(OCC(=O)N(O)C3CCCCC3)cccc2n1Cc1ccccc1 (as salt: hydrochloride) [Compound 2An, 2-[[3-(Aminooxoacetyl)-2-ethyl-1-(phenylmethyl)-1H-indol-4-yl]oxy]-N-(cyclohexyl)-N-(hydroxy)acetamide]	210 °C (dec.)
CCc1c(C(=O)C(N)=O)c2c(OCC(=O)N(O)C(C)C)cccc2n1Cc1ccccc1 (as salt: hydrochloride) [Compound 2Ag, 2-[[3-(Aminooxoacetyl)-2-ethyl-1-(phenylmethyl)-1H-indol-4-yl]oxy]-N-(hydroxy)-N-(2-propyl)acetamide]	202 °C (dec.)
CCc1c(C(=O)C(N)=O)c2c(OCC(=O)NOc3ccccc3)cccc2n1Cc1ccccc1 (as salt: hydrochloride) [Compound 2Al, 2-[[3-(Aminooxoacetyl)-2-ethyl-1-(phenylmethyl)-1H-indol-4-yl]oxy]-N-(phenyloxy)acetamide]	205 °C (dec.)
CCc1c(C(=O)C(N)=O)c2c(OCC(=O)N(C)Oc3ccccc3)cccc2n1Cc1ccccc1 [Compound 2Am, 2-[[3-(Aminooxoacetyl)-2-ethyl-1-(phenylmethyl)-1H-indol-4-yl]oxy]-N-(methyl)-N-(phenyloxy)acetamide]	146 to 147.5 °C

The next lines start with the values.

melting point	Compound
203 to 205 °C	CCc1c(C(=O)C(N)=O)c2c(OCC(=O)NOC(C)(C)C)cccc2n1Cc1ccccc1 (as salt: hydrochloride) [Compound 2Ah, 2-[[3-(Aminooxoacetyl)-2-ethyl-1-(phenylmethyl)-1H-indol-4-yl]oxy]-N-(tert-butyloxy)acetamide]
176 to 178 °C	CCONC(=O)COc1cccc2c1c(C(=O)C(N)=O)c(CC)n2Cc1ccccc1 (as salt: hydrochloride) [Compound 2Ae, 2-[[3-(Aminooxoacetyl)-2-ethyl-1-(phenylmethyl)-1H-indol-4-yl]oxy]-N-(ethyloxy)acetamide]
217 °C (dec.)	CCc1c(C(=O)C(N)=O)c2c(OCC(=O)N(C)O)cccc2n1Cc1ccccc1 (as salt: hydrochloride) [Compound 2Ad, 2-[[3-(Aminooxoacetyl)-2-ethyl-1-(phenylmethyl)-1H-indol-4-yl]oxy]-N-(hydroxy)-N-(methyl)acetamide]
228 °C (dec.)	CCc1c(C(=O)C(N)=O)c2c(OCC(=O)NOC)cccc2n1Cc1ccccc1 [Compound 2Ab, 2-[[3-(Aminooxoacetyl)-2-ethyl-1-(phenylmethyl)-1H-indol-4-yl]oxy]-N-(methyloxy)acetamide]
175 to 177 °C	C=CCONC(=O)COc1cccc2c1c(C(=O)C(N)=O)c(CC)n2Cc1ccccc1 (as salt: hydrochloride) [Compound 2Af, 2-[[3-(Aminooxoacetyl)-2-ethyl-1-(phenylmethyl)-1H-indol-4-yl]oxy]-N-(2-propenyloxy)acetamide]
167 to 169 °C	CCc1c(C(=O)C(N)=O)c2c(OCC(=O)NOCc3ccccc3)cccc2n1Cc1ccccc1 (as salt: hydrochloride) [Compound 2Aj, 2-[[3-(Aminooxoacetyl)-2-ethyl-1-(phenylmethyl)-1H-indol-4-yl]oxy]-N-(phenylmethyloxy)acetamide]
168 to 170 °C	CCc1c(C(=O)C(N)=O)c2c(OCC(=O)N(C)OC)cccc2n1Cc1ccccc1 (as salt: hydrochloride) [Compound 2Ac, 2-[[3-(Aminooxoacetyl)-2-ethyl-1-(phenylmethyl)-1H-indol-4-yl]oxy]-N-(methyl)-N-(methyloxy)acetamide]
